According to patent US5214056A, “1,3,2-dioxathiolane oxide derivative” (Japan Tobacco Inc., priority 1989, dated 1993):

How the values were obtained:
[1] = target: T1, cathepsin B (Bos taurus, UniProt P07688); experiment: Cathepsin B inhibition activity in in-vitro system; type: biochemical; details: cathepsin B (Sigma), benzoyl-(phenylalanyl-alginyl)-4-methyl-coumarinamide substrate, pH 6.0, 30° C. for 20 minutes; read-out: 50% inhibition concentration IC50
T1 construct: purchased Sigma Co
Procedure: In this experiment, a 100-mM sodium phosphate buffer solution (pH=6.0; containing 1.33-mM EDTA Na2) was used as the buffer solutions for solution preparation.
A solution mixture consisting of the following components was prepared.
The above buffer solution; 850 μl
A 20-μM solution obtained by dissolving the compound of the present invention in the above buffer solution; 50 μl
A solution obtained by dissolving cathepsin B (available from Sigma Co.) in the above buffer solution to have a concentration of 0.5 mg/ml; 50 μl
50 μl of a 200-μM solution obtained by dissolving benzoyl-(phenylalanyl-alginyl)-4-methyl-coumarinamide in the above buffer solution were added to the above solution mixture, and the resultant solution was incubated at 30° C. for 20 minutes.
After the incubation, the reaction solution mixture was cooled in an ice bath to stop the reaction. After 20 minutes elapsed, the fluorescence intensity (b1) at an excitation wavelength of 370 nm and an emission wavelength of 440 nm was measured. At the same time, an experiment was performed using the above buffer solution in place of the solution of cathepsin B in the above system, and fluorescence intensity (b2) was measured following the same procedures as described above. In addition, an experiment was performed using the above buffer solution in place of the buffer solution of the compound of the present invention, and fluorescence intensity (b3) was measured following the same procedures as described above.
An inhibition ratio was calculated in accordance with the following equation: [formula] and a concentration (IC50) required for 50% inhibition was calculated by using a semilogarithmical graph.

[2] = target: T2, Purified calpain (CANP) sampled from a rat brain (Rattus norvegicus, UniProt Q07009); experiment: CANP inhibition activity in in vitro system; type: biochemical; details: N,N-dimethylcasein substrate, 30° C. for 20 minutes, pH 7.4, read-out: 50% inhibition concentration IC50
T2 construct: sampled from a rat brain; from tissue; host or cells: rat brain
T2 sequence (Q07009 1-700): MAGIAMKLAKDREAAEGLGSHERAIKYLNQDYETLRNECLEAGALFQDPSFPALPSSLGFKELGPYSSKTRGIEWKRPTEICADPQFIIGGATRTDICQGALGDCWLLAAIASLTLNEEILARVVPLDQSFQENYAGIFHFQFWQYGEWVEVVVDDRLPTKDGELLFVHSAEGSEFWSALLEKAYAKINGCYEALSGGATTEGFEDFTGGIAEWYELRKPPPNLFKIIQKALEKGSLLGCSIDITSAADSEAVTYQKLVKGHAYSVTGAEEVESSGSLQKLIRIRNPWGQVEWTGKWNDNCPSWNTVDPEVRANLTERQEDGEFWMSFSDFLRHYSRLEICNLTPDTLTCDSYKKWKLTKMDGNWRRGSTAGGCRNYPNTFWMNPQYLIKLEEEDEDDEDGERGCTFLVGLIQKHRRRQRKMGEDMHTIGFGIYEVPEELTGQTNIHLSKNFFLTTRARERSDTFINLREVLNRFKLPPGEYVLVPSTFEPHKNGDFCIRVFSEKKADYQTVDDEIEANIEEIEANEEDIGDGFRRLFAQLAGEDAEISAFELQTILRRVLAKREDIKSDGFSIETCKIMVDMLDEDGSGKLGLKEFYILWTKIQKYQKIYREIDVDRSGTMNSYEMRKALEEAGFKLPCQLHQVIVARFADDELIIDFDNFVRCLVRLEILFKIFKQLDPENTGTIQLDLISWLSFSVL
T2 sequence (Q64537 1-270 partner): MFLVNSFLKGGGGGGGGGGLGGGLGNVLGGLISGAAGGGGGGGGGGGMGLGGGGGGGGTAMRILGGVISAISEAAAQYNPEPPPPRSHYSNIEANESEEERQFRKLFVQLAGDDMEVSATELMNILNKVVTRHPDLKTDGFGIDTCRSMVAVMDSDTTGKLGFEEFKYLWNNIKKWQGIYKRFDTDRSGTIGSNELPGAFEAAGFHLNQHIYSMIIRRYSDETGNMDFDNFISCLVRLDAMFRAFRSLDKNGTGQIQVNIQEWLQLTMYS
Procedure: A solution mixture consisting of the following com-ponents was prepared.
A 167-mM Tris hydrochloric acid buffer solution (pH=7.4) (containing 15-mM mercaptoethanol); 40 μl
A solution obtained by dissolving the compound [I] of the present invention in the same Tris hydrochloric acid buffer solution as described above; 40 μl
Purified calpain [obtained by a method described in J. Biol. Chem., 239, 149 (1964)] sampled from a rat brain and dissolved in a 50-mM sodium acetic acid buffer solution (pH=6.0; containing 1-mM EDTA and 5-mM mercaptoethanol) 11 units/ml; 200 μl
An N,N-dimethylcasein solution (pH=7.0)
40 μl of a 167-mM Tris hydrochloric acid buffer solution (pH=7.4) containing 50-mM CaCl2 were added to the above solution mixture, and the resultant solution was incubated at 30° C. for 20 minutes. After the incubation, 320 μl of 10% (W/V) trichloroacetic acid were added to stop the reaction, and the resultant solution was left to stand in an ice bath for one hour. Thereafter, the solution was subjected to centrifugal separation (16,100×g, five minutes), and 600 μl of the supernatant were sampled to measure absorbance (a1) at 280 nm.
In another step, absorbance (a2) was obtained by performing an experiment and measurement following the same procedures as described above except that a 167-mM Tris hydrochloric acid buffer solution (pH=7.4; containing 15-mM mercaptoethanol) was used in place of the 167-mM Tris hydrochloric acid buffer solution containing the compound of the present invention. In addition, absorbance (a3) was obtained by performing an experiment and measurement following the same procedures as described above except that a 167-mM Tris hydrochloric acid buffer solution (pH=7.4; containing 1-mM EDTA) was used in place of the 167-mM tris buffer solution (pH=7.4) containing 50-mM CaCl2.
An inhibition ratio was calculated from the above absorbance values (a1), (a2), and (a3) in accordance with the following equation: [formula]
In addition, a concentration (IC50) required for 50% inhibition was calculated by using a semilogarithmical graph.

IC50 [1] [nM] | IC50 [2] [nM] | Compound
25 | 15000 | CCOC(=O)[C@H]1OS(=O)(=O)O[C@@H]1C(=O)N[C@@H](CC(C)C)C(=O)NCCC(C)C [Example 4, Ethyl (4S,5S)-5-[(S)-3-methyl-1-(3-methylbutylcarbamoyl)butylcarbamoyl]-1,3,2-dioxathiolane-4-carboxylate-2,2-dioxide]
9 | 6000 | CC(C)CCNC(=O)[C@H](CC(C)C)NC(=O)[C@H]1OS(=O)(=O)O[C@@H]1C(=O)OCc1ccccc1 [Example 11, Benzyl (4S,5S)-5-[(S)-3-methyl-1-(3-methylbutylcarbamoyl)butylcarbamoyl]-1,3,2-dioxathiolane-4-carboxylate-2,2-dioxide]
0.7 | 300 | CC(C)CCNC(=O)[C@H](CC(C)C)NC(=O)[C@H]1OS(=O)(=O)O[C@@H]1C(=O)O [Example 12, (4S,5S)-5[(S)-3-methyl-1-(3-methylbutylcarbamoyl)butylcarbamoyl]-1,3,2-dioxathiolane-4-carboxy-2,2-dioxide]
15 | – | CCCCN(CCCC)C(=O)[C@H](CC(C)C)NC(=O)[C@H]1OS(=O)(=O)O[C@@H]1C(=O)OCC [Example 14]
3 | – | CCOC(=O)[C@H]1OS(=O)(=O)O[C@@H]1C(=O)N[C@@H](CC(C)C)C(=O)NCc1ccccc1 [Example 16, Ethyl (4S,5S)-5-[(S)-1-benzylcarbamoyl-3-methylbutylcarbamoyl]-1,3,2-dioxathiolane-4-carboxylate-2,2-dioxide]
35 | 7000 | CC(C)CC(NC(=O)C1OC1C(=O)O)C(=O)NCCCCNC(=N)N (stereo not shown) [Example E-64, E-64, reference compound]
